Values of other authors in paper PMC9851200, “Multiparameter phenotypic screening for endogenous TFEB and TFE3 translocation identifies novel chemical series modulating lysosome function” (Autophagy, 2022).

Tests used:
Design in all cases: method as in original PKIS2 published data
[1] = target: kinases (KINOMEscan panel) (Homo sapiens, UniProt P42336); settings: kinase PIK3CA; Published KINOMEscan; ref original PKIS2 published data; cited from earlier work
[2] = target: T1, kinases (KINOMEscan panel) (Homo sapiens, UniProt P30530); settings: AXL; Published KINOMEscan; ref original PKIS2 published data; cited from earlier work
T1 sequence (P30530 26-894): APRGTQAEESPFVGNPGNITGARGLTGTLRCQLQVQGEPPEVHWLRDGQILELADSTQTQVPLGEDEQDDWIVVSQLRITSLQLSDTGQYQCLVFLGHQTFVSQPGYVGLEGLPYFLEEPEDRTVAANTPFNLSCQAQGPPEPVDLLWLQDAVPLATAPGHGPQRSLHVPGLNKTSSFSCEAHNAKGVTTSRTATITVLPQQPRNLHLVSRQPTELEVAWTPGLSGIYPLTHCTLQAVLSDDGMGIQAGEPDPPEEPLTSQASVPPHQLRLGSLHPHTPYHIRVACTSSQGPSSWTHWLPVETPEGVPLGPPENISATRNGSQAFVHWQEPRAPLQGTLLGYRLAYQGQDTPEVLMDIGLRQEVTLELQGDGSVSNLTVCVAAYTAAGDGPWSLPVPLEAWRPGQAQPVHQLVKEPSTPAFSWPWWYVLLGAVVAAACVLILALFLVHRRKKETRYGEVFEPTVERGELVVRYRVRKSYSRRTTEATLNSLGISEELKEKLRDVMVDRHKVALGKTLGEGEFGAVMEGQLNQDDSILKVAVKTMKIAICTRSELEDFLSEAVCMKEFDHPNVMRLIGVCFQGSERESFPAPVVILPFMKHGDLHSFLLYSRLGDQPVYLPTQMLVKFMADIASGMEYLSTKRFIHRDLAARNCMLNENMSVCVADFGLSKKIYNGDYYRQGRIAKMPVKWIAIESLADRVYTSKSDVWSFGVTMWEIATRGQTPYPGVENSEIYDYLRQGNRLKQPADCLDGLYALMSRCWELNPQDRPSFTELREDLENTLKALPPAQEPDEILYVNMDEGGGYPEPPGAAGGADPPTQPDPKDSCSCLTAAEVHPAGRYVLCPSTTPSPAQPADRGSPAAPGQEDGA

[3] = target: T2, kinases (KINOMEscan panel) (Homo sapiens, UniProt Q9H2K8); settings: kinase TAOK3; Published KINOMEscan; ref original PKIS2 published data; cited from earlier work
T2 sequence (Q9H2K8 1-898): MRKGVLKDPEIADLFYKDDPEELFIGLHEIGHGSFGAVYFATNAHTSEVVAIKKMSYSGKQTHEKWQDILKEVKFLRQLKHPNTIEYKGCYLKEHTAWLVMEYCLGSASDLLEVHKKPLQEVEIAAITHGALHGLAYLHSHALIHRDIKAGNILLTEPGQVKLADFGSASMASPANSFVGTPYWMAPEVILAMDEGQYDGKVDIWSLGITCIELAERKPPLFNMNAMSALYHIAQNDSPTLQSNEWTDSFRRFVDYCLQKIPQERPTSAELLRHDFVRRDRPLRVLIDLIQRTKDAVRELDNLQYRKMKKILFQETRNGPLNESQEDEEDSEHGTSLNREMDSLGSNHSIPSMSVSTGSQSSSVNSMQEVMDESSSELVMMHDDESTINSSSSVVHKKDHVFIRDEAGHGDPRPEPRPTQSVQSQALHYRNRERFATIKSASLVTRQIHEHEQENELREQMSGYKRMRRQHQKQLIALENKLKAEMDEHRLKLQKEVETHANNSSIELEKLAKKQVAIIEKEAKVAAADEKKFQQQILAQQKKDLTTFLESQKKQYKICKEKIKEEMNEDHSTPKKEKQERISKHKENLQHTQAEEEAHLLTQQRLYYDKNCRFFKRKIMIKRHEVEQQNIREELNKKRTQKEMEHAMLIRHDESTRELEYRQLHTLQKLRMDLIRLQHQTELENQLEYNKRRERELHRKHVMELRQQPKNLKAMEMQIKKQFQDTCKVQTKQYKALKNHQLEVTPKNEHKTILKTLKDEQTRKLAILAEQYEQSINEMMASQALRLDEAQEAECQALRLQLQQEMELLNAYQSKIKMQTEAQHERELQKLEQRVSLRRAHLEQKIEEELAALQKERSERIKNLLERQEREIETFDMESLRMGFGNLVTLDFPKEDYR

[4] = target: T3, kinases (KINOMEscan panel) (Homo sapiens, UniProt O76039); settings: kinase CDKL5; Published KINOMEscan; ref original PKIS2 published data; cited from earlier work
T3 sequence (O76039 1-960): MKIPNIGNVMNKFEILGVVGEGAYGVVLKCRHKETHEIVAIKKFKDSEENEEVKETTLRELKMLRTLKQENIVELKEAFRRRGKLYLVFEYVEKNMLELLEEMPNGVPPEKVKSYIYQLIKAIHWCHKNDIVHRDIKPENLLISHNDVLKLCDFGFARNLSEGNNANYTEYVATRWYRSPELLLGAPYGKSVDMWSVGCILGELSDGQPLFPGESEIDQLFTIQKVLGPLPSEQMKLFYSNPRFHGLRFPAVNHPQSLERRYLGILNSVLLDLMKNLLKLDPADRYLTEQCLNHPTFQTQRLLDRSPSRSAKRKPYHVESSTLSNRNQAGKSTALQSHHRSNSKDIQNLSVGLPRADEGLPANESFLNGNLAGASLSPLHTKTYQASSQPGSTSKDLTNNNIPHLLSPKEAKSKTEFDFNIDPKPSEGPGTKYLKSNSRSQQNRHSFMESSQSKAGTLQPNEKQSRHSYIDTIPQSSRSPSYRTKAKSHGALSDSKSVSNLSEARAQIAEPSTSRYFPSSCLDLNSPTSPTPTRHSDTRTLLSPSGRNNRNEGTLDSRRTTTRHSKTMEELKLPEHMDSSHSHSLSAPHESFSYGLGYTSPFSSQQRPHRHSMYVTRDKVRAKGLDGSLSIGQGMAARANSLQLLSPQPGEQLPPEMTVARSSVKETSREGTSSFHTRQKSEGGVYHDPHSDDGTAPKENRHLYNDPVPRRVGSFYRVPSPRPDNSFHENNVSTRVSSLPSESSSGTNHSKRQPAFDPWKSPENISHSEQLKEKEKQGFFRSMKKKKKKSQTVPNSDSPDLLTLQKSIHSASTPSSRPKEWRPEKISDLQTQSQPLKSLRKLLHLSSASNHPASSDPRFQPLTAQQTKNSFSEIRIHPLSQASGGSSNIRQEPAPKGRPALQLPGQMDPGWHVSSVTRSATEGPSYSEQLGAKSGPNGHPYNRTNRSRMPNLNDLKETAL

Sequence of kinases (KINOMEscan panel) (Homo sapiens, UniProt P42336) (P42336 whole entry): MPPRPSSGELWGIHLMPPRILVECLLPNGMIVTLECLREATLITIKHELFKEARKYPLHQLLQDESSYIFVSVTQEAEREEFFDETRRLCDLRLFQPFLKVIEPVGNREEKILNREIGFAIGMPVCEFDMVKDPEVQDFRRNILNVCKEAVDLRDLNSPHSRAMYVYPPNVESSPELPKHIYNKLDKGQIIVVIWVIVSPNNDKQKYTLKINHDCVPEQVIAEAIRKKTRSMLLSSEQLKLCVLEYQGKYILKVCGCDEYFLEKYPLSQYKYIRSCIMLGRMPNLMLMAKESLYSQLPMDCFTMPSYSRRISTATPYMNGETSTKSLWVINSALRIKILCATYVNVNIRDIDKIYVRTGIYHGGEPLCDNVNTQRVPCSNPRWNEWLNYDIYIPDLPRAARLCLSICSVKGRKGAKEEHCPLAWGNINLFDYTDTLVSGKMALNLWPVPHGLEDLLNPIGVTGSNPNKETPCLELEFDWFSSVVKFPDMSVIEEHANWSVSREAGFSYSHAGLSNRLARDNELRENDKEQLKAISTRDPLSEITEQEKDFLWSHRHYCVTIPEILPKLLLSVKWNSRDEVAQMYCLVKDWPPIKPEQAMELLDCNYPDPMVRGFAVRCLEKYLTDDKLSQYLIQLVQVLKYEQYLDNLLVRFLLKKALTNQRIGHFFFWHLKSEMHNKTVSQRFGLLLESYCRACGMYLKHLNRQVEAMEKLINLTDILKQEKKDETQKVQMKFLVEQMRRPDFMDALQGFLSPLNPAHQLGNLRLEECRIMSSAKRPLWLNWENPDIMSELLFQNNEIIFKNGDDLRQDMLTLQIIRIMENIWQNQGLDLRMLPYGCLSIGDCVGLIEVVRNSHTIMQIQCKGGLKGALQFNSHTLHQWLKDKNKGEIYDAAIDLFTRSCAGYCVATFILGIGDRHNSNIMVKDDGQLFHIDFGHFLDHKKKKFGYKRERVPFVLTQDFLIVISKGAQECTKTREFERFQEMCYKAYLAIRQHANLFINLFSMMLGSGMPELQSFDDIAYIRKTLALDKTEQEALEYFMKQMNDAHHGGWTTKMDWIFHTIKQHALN

For Cc1cccc(-c2nc(Nc3ccncc3)c3ccccc3n2)n1 [NK215], the “KINOMEscan PIK3CA” value [1] is listed as 0, the “KINOMEscan AXL” value [2] is listed as 7 and the “KINOMEscan TAOK3” value [3] is listed as 0. The “KINOMEscan CDKL5” value [4] was 0.
